US20170158745A1, “IDR PEPTIDE COMPOSITIONS AND USE THEREOF FOR TREATMENT OF TH2-DYSREGULATED INFLAMMATORY CONDITIONS” (University of Manitoba, priority 2013, published 2017)
Residues, ends and D or L forms follow the SMILES beside them.

Columns and labels:
Assay type in all cases: in vivo, mouse (Balb/c)
Conditions in all cases: BALF, serum or lung tissue extract
[1] = tested on: IL-4; test: Induction of IL-4 by the peptide itself
[2] = tested on: IL-1β; test: Induction of IL-1β by the peptide itself
[3] = tested on: IL-5; test: Induction of IL-5 by the peptide itself
[4] = tested on: TNFα; test: Induction of TNFα by the peptide itself

CC[C@H](C)[C@H](NC(=O)[C@H](CCCNC(=N)N)NC(=O)[C@H](Cc1c[nH]c2ccccc12)NC(=O)[C@@H](NC(=O)[C@@H](NC(=O)[C@H](CC(C)C)NC(=O)[C@H](Cc1c[nH]c2ccccc12)NC(=O)[C@H](CCCNC(=N)N)NC(=O)[C@H](CCC(N)=O)NC(=O)[C@@H](N)C(C)C)[C@@H](C)CC)C(C)C)C(=O)N[C@@H](CCCNC(=N)N)C(=O)N[C@@H](CCCCN)C(N)=O [IDR 1002, VQRWLIVWRIRK-NH2] (H-VQRWLIVWRIRK-NH2)
did not induce: induction of IL-4 [1] | induction of IL-1β [2] | induction of IL-5 [3] | induction of TNFα [4]
